Measurements from patent US20120014911A1, “Regulators of the Interferon-Alpha Receptor 1 (IFNAR1) Chain of the Interferon Receptor” (priority 2009, published 2012).

Key:
[1] = tested on: vesicular stomatitis virus (VSV); assay type: cell-based; conditions: human 2fTGH cells, IFN-α 25-100 U/ml, titer 24 hr after treatments
IFNAR1 = experiment: Cycloheximide chase of IFNAR1 degradation; assay type: cell-based, human; conditions: HeLa cells, CHX chase in the presence of IFN-α
Procedure: (§1) Immunoprecipitation and immunoblotting procedures are described elsewhere (Fuchs et al, 1999, Oncogene 18:2039-2046). Protein degradation was carried out by cycloheximide (CHX, used at 20 μg/ml) chase. IFNAR1 internalization assay was carried out using the Fluorescence-based assay as described elsewhere (Kumar et al., 2007, J Cell Biol 179:935-950). BAY 43-9006 was obtained as a gift. Recombinant human IFN-a2 (Roferon) was purchased from Roche. Other reagents or inhibitors were purchased from commercial vendors.
Antibodies against Flag, GST and j3-actin (Sigma), HA (12CA, Roche), CK1α, PICD1/2 (PKCμ), PKD3 (PKCν), Tyk2, intracellular domain of hIFNAR1 and PKR, (Santa Cruz), anti-pan-phospho-tyrosine (4G10), phospho-Stat1 and Stat1 (Cell signaling), phospho-S710 of PKD2 (Biosource), PKD2 (Bethyl Laboratories), mIFNAR1 (Leinco) and ubiquitin (FK2, Biomol) were purchased. AA3, GB8 and EAl2 antibodies which recognize endogenous IFNAR1 (Goldman et al., 1999) and antibodies against IFNAR1 phosphorylated on Ser535 (pS535; (Kumar et al., 2004, J Biol Chem 279:46614-46620)) were described previously. Secondary antibodies conjugated to horseradish peroxidase were purchased from Chemicon and LI-COR. […] Immunoblot detection and quantification were carried out using the LI-COR's Odyssey Infrared Imaging System.

2fTGH cells = assay type: cell-based, human; conditions: inhibitor pre-treatment 1 h, IFN-α pulse 1-2 h, read 24 h later
protein kinase D (PKD) = conditions: literature (Gschwendt et al., 1996; Sharlow et al., 2008); cited from earlier work
[2] = tested on: IFNAR1 Ser535 phosphorylation; experiment: IFN-α-induced Ser535 (degron) phosphorylation of IFNAR1 in cells, IP-immunoblot with anti-pS535; assay type: cell-based, human; conditions: 293T cells, inhibitor pre-treatment, IFN-α
Procedure: as §1
Antibodies against Flag, GST and j3-actin (Sigma), HA (12CA, Roche), CK1α, PICD1/2 (PKCμ), PKD3 (PKCν), Tyk2, intracellular domain of hIFNAR1 and PKR, (Santa Cruz), anti-pan-phospho-tyrosine (4G10), phospho-Stat1 and Stat1 (Cell signaling), phospho-S710 of PKD2 (Biosource), PKD2 (Bethyl Laboratories), mIFNAR1 (Leinco) and ubiquitin (FK2, Biomol) were purchased. AA3, GB8 and EAl2 antibodies which recognize endogenous IFNAR1 (Goldman et al., 1999) and antibodies against IFNAR1 phosphorylated on Ser535 (pS535; (Kumar et al., 2004, J Biol Chem 279:46614-46620)) were described previously. Secondary antibodies conjugated to horseradish peroxidase were purchased from Chemicon and LI-COR. Immunoprecipitation and immunoblotting procedures are described elsewhere (Fuchs et al, 1999, Oncogene 18:2039-2046). Protein degradation was carried out by cycloheximide (CHX) chase in the presence of CHX (20 μg/ml). Immunoblot detection and quantification were carried out using the LI-COR's Odyssey Infrared Imaging System.

Stat1 = Stat1 tyrosine phosphorylation in response to IFN-α, immunoblot; assay type: cell-based, human; conditions: HeLa cells, inhibitor pre-treatment 1 h, IFN-α pulse 15 min

Row | Compound | protective effect of IFN-α against VSV (viral titer) [1] | rate of proteolytic turnover (ligand-stimulated degradation) of IFNAR1 (IFNAR1) | ISRE-driven luciferase transcriptional activity (2fTGH cells) | inhibition of / specificity against PKD (protein kinase D (PKD)) | ligand-induced Ser535 phosphorylation of endogenous IFNAR1 [2] | ligand-induced phosphorylation of Stat1 (Stat1)
1 | O.O.O.O.O.O.O.O.O.O=C([O-])[C@@H]1[O][Sb](=[O])([O][Sb]2(=[O])[O][C@H]([C@H](O)CO)[C@H](O)[C@H](C(=O)[O-])[O]2)[O][C@H]([C@H](O)CO)[C@@H]1O.[Na+].[Na+].[Na+] (stereo partly drawn) [SSG] | potentiates the protective effect |  |  |  |  | 
2 | O=C1NCCCc2c1oc1ccc(O)cc21 [CID755673] |  | appreciable decrease | robustly augmented | high specificity | significant inhibition | noticeably prolonged
